Source: PubChem BioAssay AID1963833 (Molecular Pharmacology Branch, DTP, NCI, 2024)

Tested on: 883617-216-R-J1-PDC complex spheroid viability
Assay: Anticancer human tumor 883617-216-R-J1-PDC patient-derived bladder carcinoma cell line growth inhibition [POLQ]
Settings: for IC50: curve of first compound; for viability, T/C: stronger effect = lower value
Procedure, shortened: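 Growth inhibition in 3D: complex spheroids (tumor PDC, HUVEC, MSC) treated with POLQ inhibitor combinations; where Cmax unknown, highest tested concentration 10 microM, except SN-38 at 1 microM.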

[1] = second compound 0.0316 µM, first compound 0.0316 µM
[2] = second compound 0.0316 µM, first compound 0.1 µM
[3] = second compound 0.0316 µM, first compound 0.316 µM
[4] = second compound 0.0316 µM, first compound 1 µM
[5] = second compound 0.0316 µM, first compound 3.16 µM
[6] = second compound 0.0316 µM, first compound 10 µM
[7] = second compound 0.1 µM, first compound 0.0316 µM
[8] = second compound 0.1 µM, first compound 0.1 µM
[9] = second compound 0.1 µM, first compound 0.316 µM
[10] = second compound 0.1 µM, first compound 1 µM
[11] = second compound 0.1 µM, first compound 3.16 µM
[12] = second compound 0.1 µM, first compound 10 µM
[13] = second compound 0.316 µM, first compound 0.0316 µM
[14] = second compound 0.316 µM, first compound 0.1 µM
[15] = second compound 0.316 µM, first compound 0.316 µM
[16] = second compound 0.316 µM, first compound 1 µM
[17] = second compound 0.316 µM, first compound 3.16 µM
[18] = second compound 0.316 µM, first compound 10 µM
[19] = second compound 1 µM, first compound 0.0316 µM
[20] = second compound 1 µM, first compound 0.1 µM
[21] = second compound 1 µM, first compound 0.316 µM
[22] = second compound 1 µM, first compound 1 µM
[23] = second compound 1 µM, first compound 3.16 µM
[24] = second compound 1 µM, first compound 10 µM
[25] = second compound 3.16 µM, first compound 0.0316 µM
[26] = second compound 3.16 µM, first compound 0.1 µM
[27] = second compound 3.16 µM, first compound 0.316 µM
[28] = second compound 3.16 µM, first compound 1 µM
[29] = second compound 3.16 µM, first compound 3.16 µM
[30] = second compound 3.16 µM, first compound 10 µM
[31] = second compound 10 µM, first compound 0.0316 µM
[32] = second compound 10 µM, first compound 0.1 µM
[33] = second compound 10 µM, first compound 0.316 µM
[34] = second compound 10 µM, first compound 1 µM
[35] = second compound 10 µM, first compound 3.16 µM
[36] = second compound 10 µM, first compound 10 µM
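Also: spheroids exposed to compounds for seven days before readout.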
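For viability, T/C in this document: 100% = DMSO vehicle control viability.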

Compound `CC1COCCN1c1cc(C2(S(C)(=N)=O)CC2)nc(-c2ccnc3[nH]ccc23)n1` (stereo unspecified) + Nc1ccc(C#CCN(C(=O)Cc2ncc(C(F)(F)F)cc2C(F)(F)F)c2ccc(F)cc2)nn1 has an IC50 (second compound 0.0316 µM) of 5980 nM, an IC50 (second compound 0.1 µM) of 5700 nM and an IC50 (second compound 0.316 µM) of 4480 nM. The IC50 (second compound 1 µM) was 4270 nM, the IC50 (second compound 3.16 µM) was 6200 nM and the IC50 (second compound 10 µM) was 3530 nM. The viability, T/C [1] was 110%, the viability, T/C [2] was 108% and the viability, T/C [3] was 89.2%. It also gave a viability, T/C [4] of 76.8%, a viability, T/C [5] of 59.7% and a viability, T/C [6] of 42.5%. The viability, T/C [7] was 82.7%, the viability, T/C [8] was 101% and the viability, T/C [9] was 89.8%. It also gave a viability, T/C [10] of 76.4%, a viability, T/C [11] of 62% and a viability, T/C [12] of 39.6%. The viability, T/C [13] was 96.7%, the viability, T/C [14] was 111% and the viability, T/C [15] was 93.1%. For the same compound, the viability, T/C [16] was 73.4%, the viability, T/C [17] was 56.7% and the viability, T/C [18] was 40.2%. It also gave a viability, T/C [19] of 99.5%, a viability, T/C [20] of 90.3% and a viability, T/C [21] of 87.5%. For the same compound, the viability, T/C [22] was 65.4%, the viability, T/C [23] was 56.6% and the viability, T/C [24] was 37.4%. The viability, T/C [25] was 114%, the viability, T/C [26] was 93.1% and the viability, T/C [27] was 97.6%. For the same compound, the viability, T/C [28] was 82.3%, the viability, T/C [29] was 63.8% and the viability, T/C [30] was 39.4%. For the same compound, the viability, T/C [31] was 98.1%, the viability, T/C [32] was 105% and the viability, T/C [33] was 102%. It also gave a viability, T/C [34] of 83.7%, a viability, T/C [35] of 52% and a viability, T/C [36] of 37.5%.

In the case of `COc1ccc([C@@H](O)c2cc(-c3ncnc4cc(N5CCOCC5)ccc34)c(F)cc2Cl)nn1` + Nc1ccc(C#CCN(C(=O)Cc2ncc(C(F)(F)F)cc2C(F)(F)F)c2ccc(F)cc2)nn1, the IC50 (second compound 0.0316 µM) is reported as 2810 nM, the IC50 (second compound 0.1 µM) is reported as 2800 nM and the IC50 (second compound 0.316 µM) is reported as 2660 nM. The IC50 (second compound 1 µM) was 3410 nM, the IC50 (second compound 3.16 µM) was 2870 nM and the IC50 (second compound 10 µM) was 2500 nM. The viability, T/C [1] was 104%, the viability, T/C [2] was 92.5% and the viability, T/C [3] was 90.1%. For the same compound, the viability, T/C [4] was 66.7%, the viability, T/C [5] was 48% and the viability, T/C [6] was 36.6%. For the same compound, the viability, T/C [7] was 75.6%, the viability, T/C [8] was 97.9% and the viability, T/C [9] was 84.6%. For the same compound, the viability, T/C [10] was 63.2%, the viability, T/C [11] was 51.9% and the viability, T/C [12] was 33.1%. The viability, T/C [13] was 108%, the viability, T/C [14] was 99.7% and the viability, T/C [15] was 84.3%. The viability, T/C [16] was 62.8%, the viability, T/C [17] was 49.8% and the viability, T/C [18] was 31.4%. The viability, T/C [19] was 94.8%, the viability, T/C [20] was 89.3% and the viability, T/C [21] was 77.9%. For the same compound, the viability, T/C [22] was 68.2%, the viability, T/C [23] was 50% and the viability, T/C [24] was 35.9%. It also gave a viability, T/C [25] of 96.3%, a viability, T/C [26] of 102% and a viability, T/C [27] of 90.8%. The viability, T/C [28] was 68.3%, the viability, T/C [29] was 50.6% and the viability, T/C [30] was 37.1%. The viability, T/C [31] was 108%, the viability, T/C [32] was 103% and the viability, T/C [33] was 101%. It also gave a viability, T/C [34] of 75.5%, a viability, T/C [35] of 43.6% and a viability, T/C [36] of 32.6%.

Compound `Cn1ncnc1[C@H]1c2n[nH]c(=O)c3cc(F)cc(c23)N[C@@H]1c1ccc(F)cc1` + Nc1ccc(C#CCN(C(=O)Cc2ncc(C(F)(F)F)cc2C(F)(F)F)c2ccc(F)cc2)nn1 has an IC50 (second compound 0.0316 µM) greater than 100 nM, an IC50 (second compound 0.1 µM) greater than 100 nM and an IC50 (second compound 0.316 µM) greater than 100 nM. It also gave an IC50 (second compound 1 µM) greater than 100 nM, an IC50 (second compound 3.16 µM) greater than 100 nM and an IC50 (second compound 10 µM) greater than 100 nM. The viability, T/C (second compound 0.0316 µM, first compound 0.000316 µM) was 87.9%, the viability, T/C (second compound 0.0316 µM, first compound 0.001 µM) was 94.4% and the viability, T/C (second compound 0.0316 µM, first compound 0.00316 µM) was 99.1%. It also gave a viability, T/C (second compound 0.0316 µM, first compound 0.01 µM) of 82.4%, a viability, T/C [1] of 72% and a viability, T/C [2] of 78.9%. For the same compound, the viability, T/C (second compound 0.1 µM, first compound 0.000316 µM) was 93.8%, the viability, T/C (second compound 0.1 µM, first compound 0.001 µM) was 97.5% and the viability, T/C (second compound 0.1 µM, first compound 0.00316 µM) was 97.7%. The viability, T/C (second compound 0.1 µM, first compound 0.01 µM) was 79.7%, the viability, T/C [7] was 85.4% and the viability, T/C [8] was 80.7%. For the same compound, the viability, T/C (second compound 0.316 µM, first compound 0.000316 µM) was 82.9%, the viability, T/C (second compound 0.316 µM, first compound 0.001 µM) was 111% and the viability, T/C (second compound 0.316 µM, first compound 0.00316 µM) was 91.9%. For the same compound, the viability, T/C (second compound 0.316 µM, first compound 0.01 µM) was 87.9%, the viability, T/C [13] was 83% and the viability, T/C [14] was 77.5%. For the same compound, the viability, T/C (second compound 1 µM, first compound 0.000316 µM) was 91.9%, the viability, T/C (second compound 1 µM, first compound 0.001 µM) was 94.4% and the viability, T/C (second compound 1 µM, first compound 0.00316 µM) was 104%. For the same compound, the viability, T/C (second compound 1 µM, first compound 0.01 µM) was 93.1%, the viability, T/C [19] was 84.5% and the viability, T/C [20] was 81.8%. It also gave a viability, T/C (second compound 3.16 µM, first compound 0.000316 µM) of 101%, a viability, T/C (second compound 3.16 µM, first compound 0.001 µM) of 112% and a viability, T/C (second compound 3.16 µM, first compound 0.00316 µM) of 90.2%. The viability, T/C (second compound 3.16 µM, first compound 0.01 µM) was 109%, the viability, T/C [25] was 86% and the viability, T/C [26] was 67.8%. It also gave a viability, T/C (second compound 10 µM, first compound 0.000316 µM) of 100%, a viability, T/C (second compound 10 µM, first compound 0.001 µM) of 102% and a viability, T/C (second compound 10 µM, first compound 0.00316 µM) of 102%. The viability, T/C (second compound 10 µM, first compound 0.01 µM) was 95.8%, the viability, T/C [31] was 118% and the viability, T/C [32] was 92.2%.
